Drawing on PMC6934184, “Selective DNA-PKcs inhibition extends the therapeutic index of localized radiotherapy and chemotherapy” (The Journal of Clinical Investigation, 2019), this text covers inhibition for one compound.

In general, inhibition refers to the drop in the measured response relative to a control, in per cent.

The test has as its target T1, PRKG1 (Homo sapiens, UniProt Q13976).
T1 construct: purchased Thermo Fisher Scientific (Life Technologies) SelectScreen
Briefly: SelectScreen Z'LYTE. Format: biochemical. An outline of the steps: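 NU5455 was profiled across the SelectScreen Broad panel of kinase activity and binding assays. Z'LYTE reactions such as CSF1R ran at apparent Km ATP, while the Adapta CAMK1 assay used ATP listed as 10. Values are given as percent.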

T1 sequence (Q13976 whole entry): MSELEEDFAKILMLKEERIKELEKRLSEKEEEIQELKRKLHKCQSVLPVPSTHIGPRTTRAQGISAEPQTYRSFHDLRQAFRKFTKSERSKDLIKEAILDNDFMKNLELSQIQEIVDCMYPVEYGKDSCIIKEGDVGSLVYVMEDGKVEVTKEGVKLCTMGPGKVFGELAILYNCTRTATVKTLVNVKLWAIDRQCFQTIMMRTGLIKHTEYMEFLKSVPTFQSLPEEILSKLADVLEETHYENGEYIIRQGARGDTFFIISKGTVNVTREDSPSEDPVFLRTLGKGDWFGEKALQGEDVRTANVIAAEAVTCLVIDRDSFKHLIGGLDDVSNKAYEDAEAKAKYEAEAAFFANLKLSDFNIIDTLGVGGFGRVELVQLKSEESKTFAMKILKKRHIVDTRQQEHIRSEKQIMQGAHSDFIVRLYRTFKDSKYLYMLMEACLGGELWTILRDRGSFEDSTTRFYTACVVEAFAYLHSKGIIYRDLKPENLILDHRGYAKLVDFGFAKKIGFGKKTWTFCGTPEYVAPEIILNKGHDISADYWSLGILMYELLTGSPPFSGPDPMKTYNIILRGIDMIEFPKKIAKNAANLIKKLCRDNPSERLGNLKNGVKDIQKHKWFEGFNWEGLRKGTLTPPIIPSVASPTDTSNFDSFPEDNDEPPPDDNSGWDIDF

With `CN(C(=O)CN1CCOCC1)c1ccc2sc3c(-c4cccc5c(=O)cc(N6CC7CCC(C6)O7)oc45)cccc3c2c1` [NU5455], the inhibition at 1 µM was -2.7%.
